Test results as given in patent US20110142866A1, “PEPTIDE ANALOGUES AND CONJUGATES THEREOF” (Eldrug S.A., priority 2007, published 2011).
Entries after “also recorded” stand apart in the source; their conditions may differ. Positions of bridges follow the written chain, without caps; N, C: chain ends. No end group written: not given here.

Key:
[1] = tested on: IFN-γ secretion by T cells; experiment: IFN-γ ELISpot of spleen cells from immunized mice; format: in vivo, SJL/J mice; conditions: for cross-reaction of IFN-γ producing T cells with native MBP87-99 peptide: recall peptide native MBP87-99
Description: (§1) Female 6-8 week old SJL/J mice used in all experiments, were purchased from Walter and Eliza Hall Institute (VIC Australia) and housed at the Biological Research Laboratory at Burnet Institute at Austin, Heidelberg, Australia. SJL/J mice were immunized twice on days 0, 14 intradermally (base of tail) with 50 μg MBP83-99 peptide analogue-KLH-reduced mannan.
(§2) ELISpot analyses specific T cell responses to antigens by detecting the secretion of specific cytokines. Spleen cells from immunized SJL/J mice were isolated 14 days after immunization and assessed by ELISpot for IFN-γ, IL-4 or IL-10 secretion by T cells. IFN-γ ELISpot assay was performed on MultiScreen-IP Filter Plate (MAIP S4510) with hydrophobic PVDF filters (Millipore, UK) while IL-4 and IL-10 ELISpot was performed on MultiScreen-HA Filter Plate (MAHA S4510) with mixed cellulose esters filters (Millipore, UK). MAIP S4510 plates were pre-wet with 50 μl of 70% ethanol, washed 5 times with 200 μl sterile PBS and coated with 70 μl of 5 μg/ml anti-IFN-γ capture antibody, AN18 (Mabtech, Australia) in PBS and left to incubate at 4° C. O/N. While 70 μl of 5 μg/ml anti-IL-4 and anti-IL-10 capture antibody (Mabtech, Australia) was added directly to MAHA S4510 plates and incubated at 4° C. O/N without 70% ethanol treatment. Following 5 washes with PBS, plates were blocked by adding 200 μl of culture media (supplemented with 2.5% FCS) and incubated for 2 hours at 37° C. The blocking media was discarded and 10 μg/ml recall peptides (MBP83-99 peptide analogues not conjugated to KLH-reduced mannan) were added into each defined well. Con A (1.0 μg/ml; IL-4 and IFN-γ) or LPS (1.0 μg/ml; IL-10) were used as an internal positive controls and no peptide was used as negative control. Triplicate wells were set up for each condition. 5×10^5 spleen cells in 100 μl culture media were seeded into each well and incubated for 18 hours for IFN-γ, 24 hours for IL-4 and 48 hours for IL-10 at 37° C. Plates were washed 5 times PBS/0.05% Tween 20 and 5 times PBS and incubated for 2 hours at RT with anti-murine IFN-γ, IL-4 or IL-10 monoclonal antibody-biotin. Plates were washed and streptavidin-ALP was added at 1.0 μg/ml and incubated for 2.0 hours at RT. Spots of activity were detected using a colorimetric AP kit (Biorad, Hercules, Calif. USA) and counted using an AID ELISpot plate reader (Autoimmun Diagnostika GmbH, Germany). Data are presented as mean spot forming units (sfu) per 0.5×10^6 cells +/−standard error of the mean (SEM).
(§3) MBP87-99, [R^91, A^96]MBP87-99 or [A^91, A^96]MBP87-99 peptides were dissolved in PBS and emulsified in an equal volume of complete Freund's adjuvant (CFA) which contained 1.0 mg/ml of heat killed Mycobacterium tuberculosis H37RA (Sigma, Victoria, Australia). SJL/J mice were given one subcutaneous injection containing 50 μg peptide into the base of tail.
(§4) SJL/J mice were immunized twice on days 0 and 14 intradermally (base of tail) with 50 μg MBP87-99-KLH-reduced mannan, [R^91, A^96]MBP87-99-KLH-reduced mannan or [A^91, A^96]MBP87-99-KLH-reduced mannan conjugates.
(§5) ELISpot detects specific T cell responses to antigens by measuring the secretion of specific cytokines from individual cells. Spleen cells from immunized SJL/J mice were isolated 28 days after CFA immunization or 14 days after the last immunization with reduced mannan-peptides and assessed by ELISpot for IFN-γ and IL-4 secretion by T cells. IFN-γ ELISpot assay was performed on MultiScreen-IP Filter Plate (MAIP S4510) with hydrophobic PVDF filters (Millipore, UK), while IL-4 ELISpot assays were performed on MultiScreen-HA Filter Plate (MAHA S4510) with mixed cellulose esters filters (Millipore, UK). MAIP S4510 plates were pre-weted with 50 μl of 70% ethanol, washed 5 times with 200 μl of sterile phosphate-buffered saline (PBS) and coated with 70 μl of 5 μg/ml anti-IFN-γ capture antibody, AN18 (Mabtech, Australia) in PBS and incubated O/N at 4° C. […]

[2] = tested on: IL-4 secretion by T cells; experiment: IL-4 ELISpot of spleen cells from immunized mice; format: in vivo, SJL/J mice
Description: as §1, §2, §3, §4, §5

[3] = tested on: respective peptides conjugated to BSA or KLH; experiment: ELISA total IgG antibody responses to the respective peptide; format: in vivo, SJL/J mice
Description: (§6) Blood was collected and sera isolated from mice prior to and 4 weeks after immunization with CFA or 14 days after the last immunization with reduced mannan conjugates. MBP87-99 or [A^91, A^96]MBP87-99 peptides conjugated to BSA or KLH were coated onto polyvinyl chloride (PVC) microtiter plates at 10 μg/ml in 0.2 M NaHCO3 buffer, pH 9.6, 0/N at 4° C. Non-specific binding was blocked with 2% BSA for 1.0 h at RT. After washing (0.05 Tween 20/PBS), serial dilutions of sera were added and incubated for a further 2 h at RT. The plates were washed and bound antibody was detected using HRP-conjugated sheep anti-mouse antibody (1/1000 dilution in PBS) (Amersham, UK) and developed using 2,2′-azino-di(3-ethylbenzthiazoline)6-sulfonic acid (ABTS) (Sigma, UK). Absorbance at 405 nm was recorded using a Fluostar Optima microplate reader (BMG labtech, Offenburg, Germany).
(§7) ELISpot assays for IFN-γ and IL-4 secretion by T cells and ELISA assays for binding of sera to native MBP protein or peptide were carried out as previously described^3, 4, 20, 21. Mean values were compared using the Student's two-tailed t-test. P value threshold of p<0.01 indicates a statistically significant difference.

native MBP87-99 peptide = experiment: ELISA cross reaction of sera with native MBP87-99 peptide; format: in vivo; conditions: 1/500 and 1/1,000 sera dilutions
Description: as §6, §7

MBP72-85 induced EAE = experiment: Induction-inhibition of MBP-EAE in Lewis rats; format: in vivo; conditions: co-injection (500 μg) with MBP72-85 (25 μg)
[4] = 50 μg peptide conjugated to reduced mannan, two intradermal injections, spleen cells 14 days post-immunization
[5] = 50 μg peptide emulsified in CFA, one injection, spleen cells 28 days
[6] = peptide conjugated to reduced mannan

Substance | IFN-γ secreting T cells (in words) [1, 4] | IFN-γ secreting T cells (in words) [1, 5] | cross-reaction of IFN-γ producing T cells with native MBP87-99 peptide [1, 6] | cross-reaction of IFN-γ producing T cells with native MBP87-99 peptide ([1]; peptide emulsified in CFA) | IL-4 secreting T cells (in words) [2, 4] | IL-4 secreting T cells (in words) [2, 5] | IgG antibody responses (in words) ([3]; peptide emulsified in CFA) | cross-reaction of antibodies with native MBP87-99 peptide (native MBP87-99 peptide; [6]) | cross-reaction of antibodies with native MBP87-99 peptide (native MBP87-99 peptide; peptide emulsified in CFA) | IgG antibody responses (in words) [3, 6] | inhibition of EAE (MBP72-85 induced EAE) | also measured
VHFFANIVTARTP [[A^91, A^96]MBP87-99] | no IFN-γ was detected | strong levels | did not cross-react | did not cross-react | high levels | high levels | No IgG antibody levels | did not cross-react | did not cross-react |  |  | 
VHFFKNIVTPRTP [MBP87-99, reference compound] | high levels | high levels |  |  | did not induce; also recorded: No detectable | did not induce; also recorded: No detectable | very low levels and Low |  |  | higher levels |  | 
VHFFRNIVTARTP [[R^91, A^96]MBP87-99] |  |  |  |  | very high | low levels |  |  |  |  |  | decrease of IFN-γ relative to native MBP87-99 [1, 6]: 70%; decrease of IFN-γ relative to native MBP87-99 ([1]; peptide emulsified in CFA): 30%; inhibition of EAE (MBP72-85 induced EAE; listed as [Arg^91, Ala^96]MBP87-99): completely prevented the development of EAE; inhibition of EAE (MBP72-85 induced EAE; listed as [Arg^91,Ala^96]MBP87-99): completely prevented the induction of EAE
Val-His-Phe-Phe-Lys^91-Asn-Ile-Val-Thr-Ala^96-Arg-Thr-Pro^99 (VHFFKNIVTARTP; lactam 5-C) [cyclo(91-99)[Ala^96] MBP87-99] |  |  |  |  |  |  |  |  |  |  | low inhibitory activity | 
Val^87-His-Phe-Phe-Arg^91-Asn-Ile-Val-Thr-Ala^96-Arg-Thr-Pro^99 [cyclo(87-99)[Arg^91, Ala^96] MBP87-99] |  |  |  |  |  |  |  |  |  |  | strong inhibitor of EAE | inhibition of EAE (MBP72-85 induced EAE; listed as cyclo(87-99)[Arg^91,Ala^96]MBP87-99): completely prevented the induction of EAE
cyclo, head-to-tail, VHFFANIVTARTP (VHFFXNIVTXRTP; cyclised or stapled) [cyclo(87-99)[A^91, A^96]MBP87-99] | reduce IFN-γ production | reduce IFN-γ production | did not cross-react | did not cross-react | moderate levels | moderate levels | no IgG antibodies | did not react | did not react | higher levels |  | decrease of IFN-γ compared to linear MBP87-99 conjugated to reduced mannan [1, 6]: ~50%; decrease of IFN-γ compared to linear MBP87-99 emulsified in CFA [1, 6]: ~70%; decrease of IFN-γ compared to the same peptide emulsified in CFA [1, 6]: ~50%
